22 molecules from patent US7977349B2, “Substituted quinolones III” (Aicuris GmbH & Co. KG, priority 2006, dated 2011) can be followed below.

One data set relates to HCMV. Put plainly: Anti-HCMV (anti-human cytomegalovirus) cytopathogenicity test. Format: cell-based. Conditions: Human betaherpesvirus 5, NHDF, 144 h, concentration inhibiting the CPE by 50% vs untreated virus control; HCMV-infected NHDF cells, 6 days, visual assessment. As to the method:
Anti-HCMV (Anti-Human Cytomegalovirus) Cytopathogenicity Tests The test compounds are employed as 50 millimolar (mM) solutions in dimethyl sulfoxide (DMSO). Ganciclovir®, Foscarnet® and Cidofovir® are used as reference compounds. After the addition of 2 μl of the 50, 5, 0.5 and 0.05 mM DMSO stock solutions respectively to 98 μl portions of cell culture medium in row […] for duplicate determinations, 1:2 dilutions are carried out with 50 μl portions of medium up to row 11 of the 96-well plate. The wells in rows 1 and 12 each contain 50 μl of medium. 150 μl of a suspension of 1×10^4 cells (human prepuce fibroblasts [NHDF]) are then pipetted into each of the wells (row 1=cell control) and, in rows 2-12, a mixture of HCMV-infected and uninfected NHDF cells (M.O.I.=0.001-0.002), i.e. 1-2 infected cells per 1000 uninfected cells. Row 12 (without substance) serves as virus control. The final test concentrations are 250-0.0005 μM. The plates are incubated at 37° C./5% CO2 for 6 days, i.e. until all the cells in the virus controls are infected (100% cytopathogenic effect [CPE]). The wells are then fixed and stained by adding a mixture of formalin and Giemsa's dye (30 minutes), washed with double-distilled water and dried in a drying oven at 50° C. The plates are then assessed visually using an overhead microscope (plaque multiplier from Technomara). The following data can be obtained from the test plates: EC50 (HCMV)=substance concentration in μM which inhibits the CPE (cytopathic effect) by 50% compared with the untreated virus control;
(In general: Protection from cytopathic effect is a common read-out in antiviral testing.)

A short description of data set [1]: Cytostatic effects on NHDF cells in the anti-HCMV cytopathogenicity test. In kind it is cell-based, human. Conditions: human, concentration at which no visible cytostatic effects on NHDF cells are evident vs untreated cell control. As to the method: Anti-HCMV (Anti-Human Cytomegalovirus) Cytopathogenicity Tests The test compounds are employed as 50 millimolar (mM) solutions in dimethyl sulfoxide (DMSO). Ganciclovir®, Foscarnet® and Cidofovir® are used as reference compounds. After the addition of 2 μl of the 50, 5, 0.5 and 0.05 mM DMSO stock solutions respectively to 98 μl portions of cell culture medium in row […] for duplicate determinations, 1:2 dilutions are carried out with 50 μl portions of medium up to row 11 of the 96-well plate. The wells in rows 1 and 12 each contain 50 μl of medium. 150 μl of a suspension of 1×10^4 cells (human prepuce fibroblasts [NHDF]) are then pipetted into each of the wells (row 1=cell control) and, in rows 2-12, a mixture of HCMV-infected and uninfected NHDF cells (M.O.I.=0.001-0.002), i.e. 1-2 infected cells per 1000 uninfected cells. Row 12 (without substance) serves as virus control. The final test concentrations are 250-0.0005 μM. The plates are incubated at 37° C./5% CO2 for 6 days, i.e. until all the cells in the virus controls are infected (100% cytopathogenic effect [CPE]). The wells are then fixed and stained by adding a mixture of formalin and Giemsa's dye (30 minutes), washed with double-distilled water and dried in a drying oven at 50° C. The plates are then assessed visually using an overhead microscope (plaque multiplier from Technomara). The following data can be obtained from the test plates: CC50 (NHDF)=substance concentration in μM at which no visible cytostatic effects on the cells are evident compared with the untreated cell control;

Usually EC50 stands for the concentration at which the effect is half-maximal. Lower therefore signals a more potent agent. The CC50 is the concentration giving 50% cytotoxicity. Low values mean harm at low concentration, high ones better tolerance by the cells.

In the data set on HCMV, `CCOC(=O)C1CCN(c2c(F)cc3c(=O)c(C(=O)NCc4ccc(Cl)cc4Cl)cn(CC(F)(F)F)c3c2OC)CC1` [Example 1, Ethyl 1-[3-{[(2,4-dichlorobenzyl)amino]carbonyl}-6-fluoro-8-methoxy-4-oxo-1-(2,2,2-trifluoroethyl)-1,4-dihydroquinolin-7-yl]piperidine-4-carboxylate] registered a half-maximal effective concentration (EC50) of 0.009 µM. The molecule further gave a 50% cytotoxic concentration (CC50) at 6 days in data set [1] of 94 µM.
In the case of `CCOC(=O)C1CCN(c2c(F)cc3c(=O)c(C(=O)NCc4ccc(OC(F)(F)F)cc4C)cn(CC(F)(F)F)c3c2OC)CC1` [Example 2, Ethyl 1-[6-fluoro-8-methoxy-3-({[2-methyl-4-(trifluoromethoxy)benzyl]amino}carbonyl)-4-oxo-1-(2,2,2-trifluoroethyl)-1,4-dihydroquinolin-7-yl]piperidine-4-carboxylate], a half-maximal effect in the data set with HCMV (EC50) was put at 0.005 µM. In addition, in data set [1], the CC50 at 6 days was determined as 47 µM.
In the data set on HCMV, `CCOC(=O)C1CCN(c2c(F)cc3c(=O)c(C(=O)NCc4ccc(OC(F)(F)F)cc4Cl)cn(CC(F)(F)F)c3c2OC)CC1` [Example 3, Ethyl 1-[3-({[2-chloro-4-(trifluoromethoxy)benzyl]amino}carbonyl)-6-fluoro-8-methoxy-4-oxo-1-(2,2,2-trifluoroethyl)-1,4-dihydroquinolin-7-yl]piperidine-4-carboxylate] yielded a concentration giving a half-maximal response (EC50) of 0.008 µM. This molecule also returned a CC50 at 6 days in data set [1] of 24 µM.
The corresponding values for `CCOC(=O)C1CCN(c2c(F)cc3c(=O)c(C(=O)NCc4ccc(Cl)cc4C)cn(CC(F)(F)F)c3c2OC)CC1` [Example 7] are 0.018 µM and 94 µM.
Molecule `CCOC(=O)C1CCN(c2c(F)cc3c(=O)c(C(=O)NCc4ccc(Cl)cc4Cl)cn([C@H]4C[C@H]4F)c3c2OC)CC1` [Example 13] yielded an EC50 in the data set with HCMV of 0.019 µM. Also, it took 23 µM to reach half-maximal cytotoxicity in data set [1] (CC50 at 6 days).
The corresponding values for `COc1c(N2CCC(C(N)=O)CC2)c(F)cc2c(=O)c(C(=O)NCc3ccc(Cl)cc3Cl)cn(CC(F)(F)F)c12` [Example 27] are 0.013 µM and 21 µM.
`COc1c(N2CCC(C(N)=O)CC2)c(F)cc2c(=O)c(C(=O)NCc3ccc(Cl)cc3C)cn(CC(F)(F)F)c12` [Example 28] showed a concentration giving a half-maximal response (EC50) in the data set with HCMV of 0.014 µM. In addition, the CC50 at 6 days in data set [1] stood at 21 µM.
As for `COc1c(N2CCC(C(N)=O)CC2)c(F)cc2c(=O)c(C(=O)NCc3ccc(C(F)(F)F)cc3C)cn(CC(F)(F)F)c12` [Example 30], a half-maximal effect in the data set on HCMV (EC50) was put at 0.034 µM. The molecule also returned a CC50 at 6 days in data set [1] of 11 µM.
For the molecule `COc1c(N2CCC(C(N)=O)CC2)c(F)cc2c(=O)c(C(=O)NCc3ccc(OC(F)(F)F)cc3C)cn(CC(F)(F)F)c12` [Example 31, 1-[6-Fluoro-8-methoxy-3-({[2-methyl-4-(trifluoromethoxy)benzyl]amino}carbonyl)-4-oxo-1-(2,2,2-trifluoroethyl)-1,4-dihydroquinolin-7-yl]piperidine-4-carboxamide], the midpoint of the response in the data set on HCMV, the EC50, lay at 0.008 µM. In data set [1], this molecule had a 50% cytotoxic concentration (CC50) at 6 days of 16 µM.
For `COc1c(N2C[C@@H](C)[C@@H](O)[C@@H](C)C2)c(F)cc2c(=O)c(C(=O)NCc3ccc(OC(F)(F)F)cc3C)cn(CC(F)(F)F)c12` [Example 32, 6-Fluoro-7-[(all-cis)-4-hydroxy-3,5-dimethylpiperidin-1-yl]-8-methoxy-N-[2-methyl-4-(trifluoromethoxy)benzyl]-4-oxo-1-(2,2,2-trifluoroethyl)-1,4-dihydroquinoline-3-carboxamide], in that order: 0.017 µM and 11 µM.
In turn, `COc1c(N2CCC3(CC2)CNC(=O)C3)c(F)cc2c(=O)c(C(=O)NCc3ccc(OC(F)(F)F)cc3C)cn(CC(F)(F)F)c12` [Example 33, 6-Fluoro-8-methoxy-N-[2-methyl-4-(trifluoromethoxy)benzyl]-4-oxo-7-(3-oxo-2,8-diazaspiro[4.5]dec-8-yl)-1-(2,2,2-trifluoroethyl)-1,4-dihydroquinoline-3-carboxamide] registered an EC50 in the data set with HCMV of 0.017 µM. In data set [1], this molecule returned a 50% cytotoxic concentration (CC50) at 6 days of 19 µM.
In the data set on HCMV, `COc1c(N2CCC3(CC2)CNC(=O)C3)c(F)cc2c(=O)c(C(=O)NCc3ccc(OC(F)(F)F)cc3C)cn(C3CC3)c12` [Example 34, 1-Cyclopropyl-6-fluoro-8-methoxy-N-[2-methyl-4-(trifluoromethoxy)benzyl]-4-oxo-7-(3-oxo-2,8-diazaspiro[4.5]dec-8-yl)-1,4-dihydroquinoline-3-carboxamide] registered a 50% effective concentration (EC50) of 0.04 µM. The molecule also returned a half-maximal cytotoxic concentration (CC50) at 6 days in data set [1] of 11 µM.
In turn, `COc1c(N2CCC3(CC2)CNC(=O)C3)c(F)cc2c(=O)c(C(=O)NCc3ccc(OC(F)(F)F)cc3Cl)cn(CC(F)(F)F)c12` [Example 36] came in with an EC50 in the data set with HCMV of 0.014 µM. The molecule further displayed a CC50 at 6 days in data set [1] of 21 µM.
As for `COc1c(N2CCC(C(=O)O)CC2)c(F)cc2c(=O)c(C(=O)NCc3ccc(OC(F)(F)F)cc3C)cn(CC(F)(F)F)c12` [Example 47, 1-[6-Fluoro-8-methoxy-3-({[2-methyl-4-(trifluoromethoxy)benzyl]amino}carbonyl)-4-oxo-1-(2,2,2-trifluoroethyl)-1,4-dihydroquinolin-7-yl]piperidine-4-carboxylic acid], the EC50 with HCMV is 0.004 µM. For the same molecule, the cytotoxic concentration (CC50) at 6 days in data set [1] was found to be 86 µM.
In the data set with HCMV, `COc1c(N2CCC(C(=O)O)CC2)c(F)cc2c(=O)c(C(=O)NCc3ccc(OC(F)(F)F)cc3Cl)cn(CC(F)(F)F)c12` [Example 48, 1-[3-({[2-Chloro-4-(trifluoromethoxy)benzyl]amino}carbonyl)-6-fluoro-8-methoxy-4-oxo-1-(2,2,2-trifluoroethyl)-1,4-dihydroquinolin-7-yl]piperidine-4-carboxylic acid] had a half-maximal effective concentration (EC50) of 0.003 µM. Besides, the CC50 at 6 days in data set [1] is 20 µM.
`COc1c(N2CCC(C(=O)O)CC2)c(F)cc2c(=O)c(C(=O)NCc3ccc(OC(F)(F)F)cc3C)cn(CCF)c12` [Example 49, 1-[6-Fluoro-1-(2-fluoroethyl)-8-methoxy-3-({[2-methyl-4-(trifluoromethoxy)benzyl]amino}carbonyl)-4-oxo-1,4-dihydroquinolin-7-yl]piperidine-4-carboxylic acid] yielded an EC50 in the data set with HCMV of 0.006 µM. Also, in data set [1], the CC50 at 6 days amounted to 94 µM.
For the molecule `COc1c(N2CCC(C(=O)O)CC2)c(F)cc2c(=O)c(C(=O)NCc3ccc(Cl)cc3Cl)cn(CC(F)(F)F)c12` [Example 50, 1-[3-{[(2,4-Dichlorobenzyl)amino]carbonyl}-6-fluoro-8-methoxy-4-oxo-1-(2,2,2-trifluoroethyl)-1,4-dihydroquinolin-7-yl]piperidine-4-carboxylic acid], in the data set on HCMV, the midpoint of the response, the EC50, lay at 0.012 µM. Also, half-maximal cytotoxicity in data set [1] (CC50 at 6 days) was put at 47 µM.
Molecule `COc1c(N2CCCC(CC(=O)O)C2)c(F)cc2c(=O)c(C(=O)NCc3ccc(Cl)cc3Cl)cn(CC(F)(F)F)c12` (centres unmarked) [Example 51, [3-{[(2,4-Dichlorobenzyl)amino]carbonyl}-6-fluoro-8-methoxy-4-oxo-1-(2,2,2-trifluoroethyl)-1,4-dihydroquinolin-7-yl]piperidin-3-ylacetic acid] registered an EC50 in the data set with HCMV of 0.026 µM. Besides, it took 47 µM to reach half-maximal cytotoxicity in data set [1] (CC50 at 6 days).
For `COc1c(N2CCC(CC(=O)O)CC2)c(F)cc2c(=O)c(C(=O)NCc3ccc(OC(F)(F)F)cc3C)cn(CC(F)(F)F)c12` [Example 53, [6-Fluoro-8-methoxy-3-({[2-methyl-4-(trifluoromethoxy)benzyl]amino}carbonyl)-4-oxo-1-(2,2,2-trifluoroethyl)-1,4-dihydroquinolin-7-yl]piperidin-4-ylacetic acid], in that order: 0.005 µM and 94 µM.
`COc1c(N2CCC(C(=O)O)CC2)c(F)cc2c(=O)c(C(=O)NCc3ccc(C(F)(F)F)cc3C)cn(CC(F)(F)F)c12` [Example 54] displayed an EC50 with HCMV of 0.022 µM. Moreover, in data set [1], the midpoint of cytotoxicity, the CC50 at 6 days, lay at 21 µM.
The molecule `COc1ccc(CNC(=O)c2cn(CC(F)(F)F)c3c(OC)c(N4CCC(C(=O)O)CC4)c(F)cc3c2=O)c(Cl)c1` [Example 55] had a concentration giving a half-maximal response (EC50) with HCMV of 0.031 µM. Further, in data set [1], half-maximal cytotoxicity (CC50 at 6 days) was put at 16 µM.
For the molecule `COc1c(N2CCC(C(=O)O)CC2)c(F)cc2c(=O)c(C(=O)NCc3c(C)cc(Cl)cc3Cl)cn(CC(F)(F)F)c12` [Example 57], in the data set on HCMV, the half-maximal effective concentration (EC50) stood at 0.026 µM. The molecule also registered a half-maximal cytotoxic concentration (CC50) at 6 days in data set [1] of 23 µM.
